Assay results published in patent US20100120850A1, “Quinoline Derivatives, Pharmaceutical Compositions Comprising Them, and Their Use in Treating Central Nervous System and Peripheral Diseases” (priority 2007, published 2010).

Target: T1, NK-3 receptor (Homo sapiens, UniProt P29371)
T1 construct: expressed in transfected cells
T1 sequence (P29371 1-465): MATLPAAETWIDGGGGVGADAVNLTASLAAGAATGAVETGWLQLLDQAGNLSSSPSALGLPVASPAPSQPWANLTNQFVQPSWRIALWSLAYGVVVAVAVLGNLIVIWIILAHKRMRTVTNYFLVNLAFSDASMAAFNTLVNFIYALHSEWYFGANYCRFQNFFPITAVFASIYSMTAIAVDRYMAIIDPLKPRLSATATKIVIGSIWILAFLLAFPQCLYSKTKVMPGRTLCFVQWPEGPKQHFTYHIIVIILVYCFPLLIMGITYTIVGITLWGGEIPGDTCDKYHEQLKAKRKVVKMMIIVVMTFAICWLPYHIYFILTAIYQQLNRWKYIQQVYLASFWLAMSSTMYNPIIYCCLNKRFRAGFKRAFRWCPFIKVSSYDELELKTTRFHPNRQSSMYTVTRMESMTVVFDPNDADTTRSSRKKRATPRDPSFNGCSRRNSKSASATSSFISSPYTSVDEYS
Assay: Assay for NK-3 functional activity (senktide-induced calcium mobilization, FLIPR)
Format: cell-based
Details: compared with the other diastereomer (sulfur center) separated by chiral SFC
Text: A human NK-3 receptor gene was cloned using methods similar to those described for other human NK receptors (Aharony et al., Mol. Pharmacol. 45:9-19, 1994; Caccese et al., Neuropeptides 33, 239-243, 1999). The DNA sequence of the cloned NK-3 receptor differed from the published sequence (Buell et al., FEBS Letts. 299, 90-95, 1992; Huang et al., Biochem. Biophys. Res. Commun 184,966-972, 1992) having a silent single T>C base change at nucleotide 1320 of the coding sequence. Since the change is silent, the cloned gene provides a primary amino acid sequence for the encoded NK-3 receptor protein identical to the published sequence. […]
Generally, NK-3 functional activity may be assessed by using calcium mobilization assays in stable NK-3r-expressing cell lines. […] Agonists may be added to the cells and fluorescence responses continuously recorded for up to 5 min. […] The action of agonists may be assessed by observing their intrinsic activity in such a system.
NK-3 receptor expressing CHO cells were maintained in growth media (Ham's F12 medium, 10% FBS, 2 mM L-glutamine, and […] Hygromycin B). […] To quantify NK-3 receptor-induced calcium mobilization, cells were first washed with assay buffer consisting of Hanks' Balanced Salt Solution, 15 mM HEPES, and 2.5 mM probenecid, pH 7.4. […] The resulting data was analyzed using XLfit software (IDBS manufacturer) to determine EC50 and IC50 values.

| SMILES | biological activity when tested in the assay for NK-3 functional activity |
| --- | --- |
| CC[C@H](NC(=O)c1c([S+](C)[O-])c(-c2ccccc2)nc2ccccc12)c1ccccc1 (single isomer, unassigned) [Example 2 first eluting compound] | substantially greater biological activity |
| C[S+]([O-])c1c(-c2ccccc2)nc2ccccc2c1C(=O)N[C@H](c1ccccc1)C1CC1 (single isomer, unassigned) [Example 8 second eluting compound] | substantially greater biological activity |
